According to US8759333B2, “Di-azetidinyl diamide as monoacylglycerol lipase inhibitors” (Janssen Pharmaceutica, NV, priority 2010, dated 2014):
Residue numbers refer to the chain shown, from its start.

Tests used:
[1] = target: T1, mutant MGL (mut-MGLL 11-313 L179S L186S) (Homo sapiens, UniProt Q99685, L169S/L176S); assay: MGL Enzyme Activity Assay, purified mutant MGL, 4MU-B substrate; assay type: biochemical; conditions: mutant MGL 5 nM, 4MU-B 10 μM, 37° C.; read-out: MGL mutant inh IC50
T1 construct: purified mutant MGL (mut-MGLL 11-313 L179S L186S)
T1 sequence (Q99685 1-303 L169S/L176S): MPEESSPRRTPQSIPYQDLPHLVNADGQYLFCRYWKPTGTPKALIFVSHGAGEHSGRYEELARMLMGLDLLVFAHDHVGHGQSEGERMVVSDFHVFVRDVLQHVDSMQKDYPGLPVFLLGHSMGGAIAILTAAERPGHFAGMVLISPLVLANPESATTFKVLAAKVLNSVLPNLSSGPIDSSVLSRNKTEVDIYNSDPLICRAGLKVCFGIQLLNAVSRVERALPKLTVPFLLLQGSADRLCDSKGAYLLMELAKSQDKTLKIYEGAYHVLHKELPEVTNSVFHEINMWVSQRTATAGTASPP
Outline: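 Purified mutant MGL (5 nM final) with 10 μM 4MU-B in 20 mM PIPES pH 7.0, 150 mM NaCl, 0.001% Tween 20; compounds 17 to 0.0003 μM final. Fluorescence (ex 335/em 440 nm) followed 5 min at 37 °C; IC50 from fit of fractional activity versus inhibitor concentration.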

[2] = target: T2, wild type MGL (wt-MGLL 6H-11-313) (Homo sapiens, UniProt Q99685); assay: MGL Enzyme Activity Assay, purified wild type MGL, 4MU-B substrate; assay type: biochemical; conditions: wild type MGL 5 nM, 4MU-B 10 μM, 37° C.; read-out: MGL wild type inh IC50
T2 construct: purified wild type MGL (wt-MGLL 6H-11-313); 6H (hexahistidine) (N)
T2 sequence (Q99685 1-303): T1 sequence (Q99685 1-303 L169S/L176S) with S169L, S176L
Description: All rate-based assays were performed in black 384-well polypropylene PCR microplates (Abgene) in a total volume of 30 μL. […] Final compound concentrations ranged from 17 to 0.0003 μM.
The IC50 values for the following compounds were determined using Microsoft Office Excel from a fit of the equation to the concentration-response plot of the fractional activity as a function of inhibitor concentration.

MGL = target: T3, MGL (Rattus norvegicus, UniProt Q8R431); assay: 2-AG Accumulation Assay in rat brain homogenate; assay type: biochemical; conditions: percent of vehicle; for activity at 10 µM: compound @10 µM, read-out: Rat Brain 2AG % VehCntrl (%) @10 µM; for activity at 1 µM: compound @1 µM, read-out: Rat Brain 2AG % VehCntrl (%) @1 µM
T3 construct: one g rat brain was homogenized using a Polytron homogenizer; from tissue; host or cells: rat brain homogenate
T3 sequence (Q8R431 1-303): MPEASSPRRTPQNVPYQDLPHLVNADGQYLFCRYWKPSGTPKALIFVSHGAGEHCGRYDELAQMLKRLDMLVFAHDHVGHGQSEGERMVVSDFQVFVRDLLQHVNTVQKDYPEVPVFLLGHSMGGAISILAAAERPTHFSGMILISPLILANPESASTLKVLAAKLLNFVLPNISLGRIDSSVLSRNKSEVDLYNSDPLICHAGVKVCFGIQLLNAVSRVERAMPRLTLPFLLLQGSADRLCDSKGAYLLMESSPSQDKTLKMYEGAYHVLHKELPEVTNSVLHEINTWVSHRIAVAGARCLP

mutant MGL = target: T4, mutant MGL (Homo sapiens, UniProt Q99685, L169S/L176S); assay: MGL ThermoFluor Assay - Mutant; assay type: binding; conditions: 0.07 mg/ml mutant MGL, 100 μM ANS, pH 7.0
T4 construct: purified mutant MGL (mut-MGLL 11-313 L179S L186S)
T4 sequence (Q99685 1-303 L169S/L176S): T1 sequence (Q99685 1-303 L169S/L176S)
Description: The ThermoFluor (TF) assay is a 384-well plate-based binding assay that measures thermal stability of proteins^1,2. The experiments were carried out using instruments available from Johnson & Johnson Pharmaceutical Research & Development, LLC. TF dye used in all experiments was 1,8-ANS (Invitrogen: A-47). Final TF assay conditions used for MGL studies were 0.07 mg/ml of mutant MGL, 100 μM ANS, 200 mM NaCl, 0.001% Tween-20 in 50 mM PIPES (pH=7.0).
Screening compound plates contained 100% DMSO compound solutions at a single concentration. […] Columns 12 and 24 were used as DMSO reference and contained no compound. […] Following compound dispension, protein and dye solutions were added to achieve the final assay volume of 3 μL.
Bar-coded assay plates were robotically loaded onto a thermostatically controlled PCR-type thermal block and then heated from 40 to 90° C. degrees at a ramp-rate of 1° C./min for all experiments. Fluorescence was measured by continuous illumination with UV light (Hamamatsu LC6), supplied via fiber optics and filtered through a band-pass filter (380-400 nm; >60D cutoff). Fluorescence emission of the entire 384-well plate was detected by measuring light intensity using a CCD camera (Sensys, Roper Scientific) filtered to detect 500±25 nm, resulting in simultaneous and independent readings of all 384 wells. A single image with 20-sec exposure time was collected at each temperature, and the sum of the pixel intensity in a given area of the assay plate was recorded vs temperature and fit to standard equations to yield the Tm^1. • 1.
The Kd values for certain compounds of Formula (I) were determined from a fit of the equation to the concentration-response plot of the fractional activity as a function of […]. For some experiments, quantitative NMR spectroscopy (qNMR) was used to measure concentration of the initial 100% DMSO compound solutions and, using the same fitting method, qKd values were determined.

Row | SMILES | IC50 [1] [nM] | IC50 [2] [nM] | activity at 10 µM (MGL) [%] | Kd (mutant MGL) [nM] | activity at 1 µM (MGL) [%]
1 | CN(C(=O)c1cscn1)C1CN(C2CN(C(=O)c3cc4ccc(C(F)(F)F)cc4s3)C2)C1 [Cpd 48, N-Methyl-N-(1′-{[6-(trifluoromethyl)-1-benzothiophen-2-yl]carbonyl}-1,3′-biazetidin-3-yl)-1,3-thiazole-4-carboxamide] | 8120 | 12900 | – | > 31000 | –
2 | O=C(NC1CN(C2CN(C(=O)c3ccc4c(ccn4-c4ccc(F)c(F)c4)c3)C2)C1)c1cscn1 [Cpd 54, N-(1′-{[1-(3,4-Difluorophenyl)-1H-indol-5-yl]carbonyl}-1,3′-biazetidin-3-yl)-1,3-thiazole-4-carboxamide] | – | 5 | – | – | 315
3 | O=C(NC1CN(C2CN(C(=O)c3ccc4c(ccn4-c4ccc(F)cc4F)c3)C2)C1)c1nccs1 [Cpd 55, N-(1′-{[1-(2,4-Difluorophenyl)-1H-indol-5-yl]carbonyl}-1,3′-biazetidin-3-yl)-1,3-thiazole-2-carboxamide] | – | 5 | – | – | 353
4 | O=C(NC1CN(C2CN(C(=O)c3ccc4c(ccn4-c4ccc(F)cc4F)c3)C2)C1)c1cscn1 [Cpd 60, N-(1′-{[1-(2,4-Difluorophenyl)-1H-indol-5-yl]carbonyl}-1,3′-biazetidin-3-yl)-1,3-thiazole-4-carboxamide] | – | 11 | – | – | 273
5 | Cc1cc(-c2ccc(C(F)(F)F)cc2)ccc1C(=O)N1CC(N2CC(NC(=O)c3nccs3)C2)C1 [Cpd 63, N-(1′-{[3-Methyl-4′-(trifluoromethyl)biphenyl-4-yl]carbonyl}-1,3′-biazetidin-3-yl)-1,3-thiazole-2-carboxamide] | – | 29 | – | – | 185
6 | Cc1c(C(=O)N2CC(N3CC(NC(=O)c4nccs4)C3)C2)sc2cc(Br)ccc12 [Cpd 65, N-{1′-[(6-Bromo-3-methyl-1-benzothiophen-2-yl)carbonyl]-1,3′-biazetidin-3-yl}-1,3-thiazole-2-carboxamide] | – | < 5 | – | – | 324
7 | O=C(c1ccc2cc(-c3ccccc3)ccc2c1)N1CC(N2CC(N3Cc4ccccc4C3=O)C2)C1 [Cpd 69, 2-{1′-[(6-Phenylnaphthalen-2-yl)carbonyl]-1,3′-biazetidin-3-yl}-2,3-dihydro-1H-isoindol-1-one] | 8 | < 5 | 600 | – | –
8 | O=C(c1ccc2c(-c3ccccc3)cccc2c1)N1CC(N2CC(N3Cc4ccccc4C3=O)C2)C1 [Cpd 97, 2-{1′-[(5-Phenylnaphthalen-2-yl)carbonyl]-1,3′-biazetidin-3-yl}-2,3-dihydro-1H-isoindol-1-one] | < 5 | < 5 | 518 | – | –
9 | Cc1cc(-c2cccc(C(F)(F)F)c2)ccc1C(=O)N1CC(N2CC(N3Cc4scnc4C3=O)C2)C1 [Cpd 104, 5-(1′-{[3-Methyl-3′-(trifluoromethyl)biphenyl-4-yl]carbonyl}-1,3′-biazetidin-3-yl)-5,6-dihydro-4H-pyrrolo[3,4-d][1,3]thiazol-4-one] | – | 66 | – | 215 | –
10 | Cc1cc(-c2ccc(C(F)(F)F)cc2)ccc1C(=O)N1CC(N2CC(N3Cc4scnc4C3=O)C2)C1 [Cpd 105, 5-(1′-{[3-Methyl-4′-(trifluoromethyl)biphenyl-4-yl]carbonyl}-1,3′-biazetidin-3-yl)-5,6-dihydro-4H-pyrrolo[3,4-d][1,3]thiazol-4-one] | – | 887 | – | 3640 | –

The next lines start with the values.

Row | IC50 [1] [nM] | IC50 [2] [nM] | activity at 10 µM (MGL) [%] | Kd (mutant MGL) [nM] | activity at 1 µM (MGL) [%] | SMILES
11 | 15 | 70 | 659 | – | – | O=C(NC1CN(C2CN(C(=O)c3ccc(Cc4ccccc4)cc3)C2)C1)c1nccs1 [Cpd 10, N-{1′-[(4-Benzylphenyl)carbonyl]-1,3′-biazetidin-3-yl}-1,3-thiazole-2-carboxamide]
12 | 32 | < 5 | 123 | – | – | O=C(NC1CN(C2CN(C(=O)c3ccc(Cc4ccc(C(F)(F)F)cc4)cc3)C2)C1)c1nccs1 [Cpd 16, N-[1′-({4-[4-(Trifluoromethyl)benzyl]phenyl}carbonyl)-1,3′-biazetidin-3-yl]-1,3-thiazole-2-carboxamide]
13 | – | 7 | – | – | 424 | O=C(NC1CN(C2CN(C(=O)c3ccc4c(ccn4-c4ccc(F)c(F)c4)c3)C2)C1)c1nccs1 [Cpd 57, N-(1′-{[1-(3,4-Difluorophenyl)-1H-indol-5-yl]carbonyl}-1,3′-biazetidin-3-yl)-1,3-thiazole-2-carboxamide]
14 | – | 8 | – | 66.6 | 157 | Cc1cc(-c2cccc(C(F)(F)F)c2)ccc1C(=O)N1CC(N2CC(NC(=O)c3nccs3)C2)C1 [Cpd 58, N-(1′-{[3-Methyl-3′-(trifluoromethyl)biphenyl-4-yl]carbonyl}-1,3′-biazetidin-3-yl)-1,3-thiazole-2-carboxamide]
15 | – | 10 | – | – | 265 | O=C(NC1CN(C2CN(C(=O)c3ccc(-c4ccc(C(F)(F)F)cc4)cc3F)C2)C1)c1nccs1 [Cpd 59, N-(1′-{[3-Fluoro-4′-(trifluoromethyl)biphenyl-4-yl]carbonyl}-1,3′-biazetidin-3-yl)-1,3-thiazole-2-carboxamide]
16 | – | 15 | – | – | 334 | Cc1cn(-c2ccc(F)cc2)c2ccc(C(=O)N3CC(N4CC(NC(=O)c5nccs5)C4)C3)cc12 [Cpd 62, N-(1′-{[1-(4-Fluorophenyl)-3-methyl-1H-indol-5-yl]carbonyl}-1,3′-biazetidin-3-yl)-1,3-thiazole-2-carboxamide]
17 | – | < 5 | – | – | 399 | Cc1c(C(=O)N2CC(N3CC(NC(=O)c4nccs4)C3)C2)sc2cc(-c3ccccc3)ccc12 [Cpd 66, N-{1′-[(3-Methyl-6-phenyl-1-benzothiophen-2-yl)carbonyl]-1,3′-biazetidin-3-yl}-1,3-thiazole-2-carboxamide]
18 | < 5 | < 5 | 613 | – | – | O=C(c1cc2ccc(-c3ccccc3)cc2s1)N1CC(N2CC(N3Cc4ccccc4C3=O)C2)C1 [Cpd 98, 2-{1′-[(6-Phenyl-1-benzothiophen-2-yl)carbonyl]-1,3′-biazetidin-3-yl}-2,3-dihydro-1H-isoindol-1-one]
19 | – | < 5 | – | – | 414 | O=C(c1ccc2c(ccn2-c2ccc(C(F)(F)F)cc2)c1)N1CC(N2CC(N3Cc4scnc4C3=O)C2)C1 [Cpd 106, 5-[1′-({1-[4-(Trifluoromethyl)phenyl]-1H-indol-5-yl}carbonyl)-1,3′-biazetidin-3-yl]-5,6-dihydro-4H-pyrrolo[3,4-d][1,3]thiazol-4-one]
